Test results published in the NIST ThermoML archive (doi:10.1021/je8008254).
Several values for one entry are separate records, joined by “and”; a condition that tells them apart may be missing. Equal values may be shown once.

How the values were obtained:
[1] = for mass density / viscosity: 101 kPa, Liquid
[2] = xn = mol fraction of the nth substance listed; settings: 101 kPa, Liquid

CCCCn1cc[n+](C)c1.N#C[S-] [1-butyl-3-methylimidazolium thiocyanate]
[1]
Settings	mass density [kg/m3]	viscosity
298.15 K	1069.79	51.7 mPa·s
308.15 K	1063.89	34.9 mPa·s
318.15 K	1058.02	24.2 mPa·s
328.15 K	1052.19	16.7 mPa·s
338.15 K	1046.43	12.73 mPa·s and 12.7 mPa·s
348.15 K	1040.7	9.98 mPa·s

Settings	Glass transition temperature [°C]
[1], Glass, DTA	-91.5

CCCCn1cc[n+](C)c1.N#C[S-] [1-butyl-3-methylimidazolium thiocyanate] + CCO
[2]
Settings	mass density [kg/m3]	viscosity [mPa·s]
298.15 K, x1 = 0.0473	829.74	1.48
298.15 K, x1 = 0.1129	876.41	2.07
298.15 K, x1 = 0.1877	916.69	2.95
298.15 K, x1 = 0.2943	957.41	4.7
298.15 K, x1 = 0.3637	978.05	6.36
298.15 K, x1 = 0.5306	1014.59	11.7
298.15 K, x1 = 0.696	1039.72	19.7
298.15 K, x1 = 0.8114	1052.9	27.4
298.15 K, x1 = 0.9174	1062.78	36.2
298.15 K, x1 = 1	1069.79	51.7
308.15 K, x1 = 0.0473	821.61	1.23
308.15 K, x1 = 0.1129	868.74	1.71
308.15 K, x1 = 0.1877	909.46	2.41
308.15 K, x1 = 0.2943	950.56	3.77
308.15 K, x1 = 0.3637	971.37	4.95
308.15 K, x1 = 0.5306	1008.22	8.89
308.15 K, x1 = 0.696	1033.57	14.3
308.15 K, x1 = 0.8114	1046.84	19.2
308.15 K, x1 = 0.9174	1056.82	24.7
308.15 K, x1 = 1	1063.89	34.9
318.15 K, x1 = 0.0473	813.39	1.05
318.15 K, x1 = 0.1129	861.06	1.44
318.15 K, x1 = 0.1877	902.2	2.01
318.15 K, x1 = 0.2943	943.72	3.1
318.15 K, x1 = 0.3637	964.72	3.94
318.15 K, x1 = 0.5306	1001.9	7
318.15 K, x1 = 0.696	1027.47	10.9
318.15 K, x1 = 0.8114	1040.84	14.2
318.15 K, x1 = 0.9174	1050.88	17.8
318.15 K, x1 = 1	–	24.2
328.15 K, x1 = 0.0473	805.05	0.896
328.15 K, x1 = 0.1129	853.27	1.23
328.15 K, x1 = 0.1877	894.91	1.71
328.15 K, x1 = 0.2943	936.87	2.59
328.15 K, x1 = 0.3637	958.11	3.24
328.15 K, x1 = 0.5306	995.61	5.97
328.15 K, x1 = 0.696	1021.4	8.54
328.15 K, x1 = 0.8114	1034.86	10.9
328.15 K, x1 = 0.9174	1044.99	13.4
328.15 K, x1 = 1	1052.19	16.7
338.15 K, x1 = 0.0473	796.53	0.78
338.15 K, x1 = 0.1129	845.44	1.06
338.15 K, x1 = 0.1877	887.57	1.47
338.15 K, x1 = 0.2943	930.03	2.2
338.15 K, x1 = 0.3637	951.47	2.75
338.15 K, x1 = 0.5306	989.36	4.56
338.15 K, x1 = 0.696	1015.36	6.84
338.15 K, x1 = 0.8114	1028.95	8.64
338.15 K, x1 = 0.9174	1039.15	10.5
338.15 K, x1 = 1	1046.43	12.73
348.15 K, x1 = 0.0473	787.85	–
348.15 K, x1 = 0.1129	837.47	0.926
348.15 K, x1 = 0.1877	880.22	1.28
348.15 K, x1 = 0.2943	923.18	1.9
348.15 K, x1 = 0.3637	944.88	–
348.15 K, x1 = 0.5306	983.14	3.8
348.15 K, x1 = 0.696	1009.4	5.58
348.15 K, x1 = 0.8114	1023.05	7.01
348.15 K, x1 = 0.9174	1033.34	8.39
348.15 K, x1 = 1	1040.7	9.98
